Where two headings read alike, the source gives them in different places.
Columns and labels:
[1] = molecular target: T1, recombinant human FLAP protein (Homo sapiens, UniProt P20292); test: FLAP binding assay (Scintillation Proximity Assay, displacement of [125I]L-691,831); conditions: recombinant human FLAP membranes, [125I]L-691,831 probe; read-out: FLAP SPA IC50
T1 construct: made in house; host or cells: Sf9 insect cells (100,000 x g membrane fraction)
T1 sequence (P20292 1-161): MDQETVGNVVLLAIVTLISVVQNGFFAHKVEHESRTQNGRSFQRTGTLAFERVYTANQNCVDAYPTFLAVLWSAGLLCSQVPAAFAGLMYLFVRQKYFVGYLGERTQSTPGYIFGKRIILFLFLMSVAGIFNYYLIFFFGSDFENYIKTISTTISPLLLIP
Summary of the method: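 Membranes came from Sf9 insect cells expressing recombinant human FLAP, collected as the 100,000×g pellet in Tris pH 7.5/MgCl2/EDTA buffer. 5 μg membrane protein was coupled to WGA SPA beads for 1 h.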

[2] = test system: synthesis of LTB4 in human whole blood; test: human whole blood LTB4 production inhibition assay; type: cell-based; conditions: heparinized human whole blood, calcimycin 20 μM, read-out: hWB LTB4 IC50
Summary of the method: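 LTB4 levels in plasma were measured by antibody-based HTRF after heparinized human whole blood, pretreated with compound (15 min, 37° C), was challenged with 20 μM calcimycin for 30 min at 37° C.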

Row | Compound | IC50 [1] | IC50 ([2]; Homo sapiens) | IC50 [2]
1 | CCOC(=O)CNc1cnc(-c2nc(C3(c4ccc(-c5cnc(N)nc5)cc4)CCC3)no2)cn1 [Example 199, [5-(3-{1-[4-(2-Amino-pyrimidin-5-yl)-phenyl]-cyclobutyl}-1,2,4-oxadiazol-5-yl)-pyrazin-2-ylamino]-acetic acid ethyl ester] | 1 nM | 42 nM | 
2 | CC(O)CNc1cnc(-c2nc(C3(c4ccc(-c5cnc(N)nc5)cc4)CCC3)no2)cn1 (stereo not drawn) [Example 200, 1-[5-(3-{1-[4-(2-Amino-pyrimidin-5-yl)-phenyl]-cyclobutyl}-1,2,4-oxadiazol-5-yl)-pyrazin-2-ylamino]-propan-2-ol] | 1.5 nM | 67 nM | 
3 | Nc1ncc(-c2ccc(C3(c4noc(-c5cnc(N6CCNC(=O)C6)cn5)n4)CCC3)cc2)cn1 [Example 201, 5′-(3-{1-[4-(2-Amino-pyrimidin-5-yl)-phenyl]-cyclobutyl}-1,2,4-oxadiazol-5-yl)-5,6-dihydro-4H-1,2′-bipyrazinyl-3-one] | 2.3 nM | 400 nM | 
4 | CS(=O)(=O)N1CCN(c2cnc(-c3nc(C4(c5ccc(-c6cnc(N)nc6)cc5)CCC4)no3)cn2)CC1 [Example 202, 5-(4-{1-[5-(4-Methanesulfonyl-3,4,5,6-tetrahydro-2H-1,2′-bipyrazinyl-5′-yl)-1,2,4-oxadiazol-3-yl]-cyclobutyl}-phenyl)-pyrimidin-2-ylamine] | 2.6 nM | 70 nM | 
5 | CS(=O)(=O)C1CCN(c2cnc(-c3nc(C4(c5ccc(-c6cnc(N)nc6)cc5)CCC4)no3)cn2)C1 (stereo not drawn) [Example 203, 5-[4-(1-{5-[5-(3-Methanesulfonyl-pyrrolidin-1-yl)-pyrazin-2-yl]-1,2,4-oxadiazol-3-yl}-cyclobutyl)-phenyl]-pyrimidin-2-ylamine] | 1.9 nM | 130 nM | 
6 | CCNC(=O)Cn1cc(-c2nc(C3(c4ccc(-c5cnc(N)nc5)cc4)CCC3)no2)cn1 [Example 204, 2-[4-(3-{1-[4-(2-Amino-pyrimidin-5-yl)-phenyl]-cyclobutyl}-[1,2,4]oxadiazol-5-yl)-pyrazol-1-yl]-N-ethyl-acetamide] | 4.5 nM |  | 75 nM
7 | CCN(C)C(=O)Cn1cc(-c2nc(C3(c4ccc(-c5cnc(N)nc5)cc4)CCC3)no2)cn1 [Example 206, 2-[4-(3-{1-[4-(2-Amino-pyrimidin-5-yl)-phenyl]-cyclobutyl}-[1,2,4]oxadiazol-5-yl)-pyrazol-1-yl]-N-ethyl-N-methyl-acetamide] | 4.3 nM |  | 38 nM
8 | CC(C)NC(=O)Cn1cc(-c2nc(C3(c4ccc(-c5cnc(N)nc5)cc4)CCC3)no2)cn1 [Example 208, 2-[4-(3-{1-[4-(2-Amino-pyrimidin-5-yl)-phenyl]-cyclobutyl}-[1,2,4]oxadiazol-5-yl)-pyrazol-1-yl]-N-isopropyl-acetamide] | 2.8 nM | 52 nM | 
9 | COC1CCN(C(=O)Cn2cc(-c3nc(C4(c5ccc(-c6cnc(N)nc6)cc5)CCC4)no3)cn2)C1 (stereo not drawn) [Example 210, 2-[4-(3-{1-[4-(2-Amino-pyrimidin-5-yl)-phenyl]-cyclobutyl}-[1,2,4]oxadiazol-5-yl)-pyrazol-1-yl]-1-(3-methoxy-pyrrolidin-1-yl)-ethanone] | 4.6 nM | 110 nM | 
10 | CCN(CC)C(=O)n1cc(-c2nc(C3(c4ccc(-c5cnc(N)nc5)cc4)CCC3)no2)cn1 [Example 211, 4-(3-{1-[4-(2-Amino-pyrimidin-5-yl)-phenyl]-cyclobutyl}-[1,2,4]oxadiazol-5-yl)-pyrazole-1-carboxylic acid diethylamide] | 3 nM | 89 nM | 
11 | Nc1ncc(-c2ccc(C3(c4noc(-c5cnn(C(=O)N6CCOCC6)c5)n4)CCC3)cc2)cn1 [Example 212, [4-(3-{1-[4-(2-Amino-pyrimidin-5-yl)-phenyl]-cyclobutyl}-[1,2,4]oxadiazol-5-yl)-pyrazol-1-yl]-morpholin-4-yl-methanone] | 2.2 nM | 22 nM | 
12 | CNC(=O)n1cc(-c2nc(C3(c4ccc(-c5cnc(N)nc5)cc4)CCC3)no2)cn1 [Example 213, 4-(3-{1-[4-(2-Amino-pyrimidin-5-yl)-phenyl]-cyclobutyl}-[1,2,4]oxadiazol-5-yl)-pyrazole-1-carboxylic acid methylamide] | 0.85 nM | 110 nM | 
13 | Nc1ncc(-c2ccc(C3(c4noc(-c5cnc(N6CCNCC6)cn5)n4)CCC3)cc2)cn1 [Example 214, 5-(4-{1-[5-(3,4,5,6-Tetrahydro-2H-[1,2′]bipyrazinyl-5′-yl)-[1,2,4]oxadiazol-3-yl]-cyclobutyl}-phenyl)-pyrimidin-2-ylamine] | 4 nM |  | 150 nM
14 | Cn1cc(-c2nc(C3(c4ccc(-c5ccc(N)nc5)cc4)CCC3)no2)cn1 [Example 215, 5-(4-{1-[5-(1-Methyl-1H-pyrazol-4-yl)-[1,2,4]oxadiazol-3-yl]-cyclobutyl}-phenyl)-pyridin-2-ylamine] | 2.1 nM | 26 nM | 
15 | Nc1ncc(-c2ccc(C3(c4noc(-c5cnn(CCN6CCCC6=O)c5)n4)CCC3)cc2)cn1 [Example 216, 1-{2-[4-(3-{1-[4-(2-Amino-pyrimidin-5-yl)-phenyl]-cyclobutyl}-[1,2,4]oxadiazol-5-yl)-pyrazol-1-yl]-ethyl}-pyrrolidin-2-one] | 1.3 nM | 59 nM | 
16 | CC(C)CNC(=O)Cn1cc(-c2nc(C3(c4ccc(-c5cnc(N)nc5)cc4)CCC3)no2)cn1 [Example 217, 2-[4-(3-{1-[4-(2-Amino-pyrimidin-5-yl)-phenyl]-cyclobutyl}-[1,2,4]oxadiazol-5-yl)-pyrazol-1-yl]-N-isobutyl-acetamide] | 3.4 nM | 81 nM | 
17 | Nc1ncc(-c2ccc(C3(c4noc(-c5cnn(CC(=O)NC6CCOCC6)c5)n4)CCC3)cc2)cn1 [Example 218, 2-[4-(3-{1-[4-(2-Amino-pyrimidin-5-yl)-phenyl]-cyclobutyl}-[1,2,4]oxadiazol-5-yl)-pyrazol-1-yl]-N-(tetrahydro-pyran-4-yl)-acetamide] | 1.2 nM | 160 nM | 
18 | CN1CCN(C(=O)Cn2cc(-c3nc(C4(c5ccc(-c6cnc(N)nc6)cc5)CCC4)no3)cn2)CC1 [Example 219, 2-[4-(3-{1-[4-(2-Amino-pyrimidin-5-yl)-phenyl]-cyclobutyl}-[1,2,4]oxadiazol-5-yl)-pyrazol-1-yl]-1-(4-methyl-piperazin-1-yl)-ethanone] | 3.1 nM | 140 nM | 

Continued, values first:

Row | IC50 [1] | IC50 ([2]; Homo sapiens) | IC50 [2] | Compound
19 | 0.7 nM | 16 nM |  | Cn1cc(-c2nc(C3(c4ccc(-c5cnc(N)cn5)cc4)CCC3)no2)cn1 [Example 220, 5-(4-{1-[5-(1-Methyl-1H-pyrazol-4-yl)-[1,2,4]oxadiazol-3-yl]-cyclobutyl}-phenyl)-pyrazin-2-ylamine]
20 | 1.9 nM | 47 nM |  | Cc1cc(-c2ccc(C3(c4noc(-c5cnn(C)c5)n4)CCC3)cc2)cnc1N [Example 221, 3-Methyl-5-(4-{1-[5-(1-methyl-1H-pyrazol-4-yl)-[1,2,4]oxadiazol-3-yl]-cyclobutyl}-phenyl)-pyridin-2-ylamine]
21 | 2.2 nM | 44 nM |  | Cc1nc(-c2ccc(C3(c4noc(-c5cnn(C)c5)n4)CCC3)cc2)cnc1N [Example 222, 3-Methyl-5-(4-{1-[5-(1-methyl-1H-pyrazol-4-yl)-[1,2,4]oxadiazol-3-yl]-cyclobutyl}-phenyl)-pyrazin-2-ylamine]
22 | 1.8 nM | 460 nM |  | CC(C)(C#N)NC(=O)Cn1cc(-c2nc(C3(c4ccc(-c5cnc(N)nc5)cc4)CCC3)no2)cn1 [Example 223, 2-[4-(3-{1-[4-(2-Amino-pyrimidin-5-yl)-phenyl]-cyclobutyl}-[1,2,4]oxadiazol-5-yl)-pyrazol-1-yl]-N-(cyano-dimethyl-methyl)-acetamide]
23 | 2.8 nM | 64 nM |  | Nc1ncc(-c2ccc(C3(c4noc(-c5cnn(CC(=O)NCC6CCCO6)c5)n4)CCC3)cc2)cn1 (stereo not drawn) [Example 224, 2-[4-(3-{1-[4-(2-Amino-pyrimidin-5-yl)-phenyl]-cyclobutyl}-[1,2,4]oxadiazol-5-yl)-pyrazol-1-yl]-N-(tetrahydro-furan-2-ylmethyl)-acetamide]
24 | 0.89 nM | > 5000 nM |  | CS(=O)(=O)CCNC(=O)Cn1cc(-c2nc(C3(c4ccc(-c5cnc(N)nc5)cc4)CCC3)no2)cn1 [Example 225, 2-[4-(3-{1-[4-(2-Amino-pyrimidin-5-yl)-phenyl]-cyclobutyl}-[1,2,4]oxadiazol-5-yl)-pyrazol-1-yl]-N-(2-methanesulfonyl-ethyl)-acetamide]
25 | 1.2 nM | 45 nM |  | Nc1ncc(-c2ccc(C3(c4noc(-c5cnn(C6CCS(=O)(=O)C6)c5)n4)CCC3)cc2)cn1 (stereo not drawn) [Example 226, 5-[4-(1-{5-[1-(1,1-Dioxo-tetrahydro-1lambda6-thiophen-3-yl)-1H-pyrazol-4-yl]-[1,2,4]oxadiazol-3-yl}-cyclobutyl)-phenyl]-pyrimidin-2-ylamine]
26 | 2.6 nM | 240 nM |  | NCCn1cc(-c2nc(C3(c4ccc(-c5cnc(N)nc5)cc4)CCC3)no2)cn1 [Example 227, 5-[4-(1-{5-[1-(2-Amino-ethyl)-1H-pyrazol-4-yl]-[1,2,4]oxadiazol-3-yl}-cyclobutyl)-phenyl]-pyrimidin-2-ylamine]
27 | 3.3 nM | 160 nM |  | COCCNC(=O)Cn1cc(-c2nc(C3(c4ccc(-c5cnc(N)nc5)cc4)CCC3)no2)cn1 [Example 228, 2-[4-(3-{1-[4-(2-Amino-pyrimidin-5-yl)-phenyl]-cyclobutyl}-[1,2,4]oxadiazol-5-yl)-pyrazol-1-yl]-N-(2-methoxy-ethyl)-acetamide]
